“And” between values parts separate entries of the source, which are not always exact repeats. Equal values may be shown once. Inconclusive results and toxic doses are left out.
Test system: P388 leukemia ip, CD2F1 mice, survival T/C
Assay: NCI In Vivo Anticancer Drug Screen. Data for tumor model P388 Leukemia (intraperitoneal) in CD2F1 (CDF1) mice
Conditions: endpoint: median survival time, higher = longer survival
In short: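 Mice carrying the transplanted tumor received test compound or vehicle. Survival was recorded in each group, and the value is the treated-group measurement divided by that of the vehicle-treated control group.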

[1] = dose: 50.0 mg/kg/injection, schedule: Q01DX009 (ip), vehicle: saline with Tween-80
[2] = dose: 100.0 mg/kg/injection, schedule: Q01DX009 (ip), vehicle: saline with Tween-80
[3] = dose: 60.0 mg/kg/injection, schedule: Q01DX005 (ip), vehicle: saline with Tween-80
[4] = dose: 120.0 mg/kg/injection, schedule: Q01DX005 (ip), vehicle: saline with Tween-80
[5] = dose: 240.0 mg/kg/injection, schedule: Q01DX005 (ip), vehicle: saline with Tween-80
[6] = dose: 50.0 mg/kg/injection, schedule: Q01DX009 (ip), vehicle: saline
[7] = dose: 100.0 mg/kg/injection, schedule: Q01DX009 (ip), vehicle: saline
[8] = dose: 200.0 mg/kg/injection, schedule: Q01DX009 (ip), vehicle: saline
[9] = dose: 50.0 mg/kg/injection, schedule: Q01DX005 (ip), vehicle: saline with Tween-80
[10] = dose: 200.0 mg/kg/injection, schedule: Q01DX005 (ip), vehicle: saline with Tween-80

Structure (SMILES): COc1cc(O)c2c(c1)C(=O)c1cc3c(c(O)c1C2=O)C(O)C(OC)C(C)(O)C3=O (stereo not given)
- T/C (dose: 6.25 mg/kg/injection, schedule: Q01DX009 (ip), vehicle: Klucel (hydroxypropylcellulose) (HPC)): 95 % of control
- T/C (dose: 12.5 mg/kg/injection, schedule: Q01DX009 (ip), vehicle: Klucel (hydroxypropylcellulose) (HPC)): 105 % of control
- T/C (dose: 25.0 mg/kg/injection, schedule: Q01DX009 (ip), vehicle: Klucel (hydroxypropylcellulose) (HPC)): 98 % of control
- T/C (dose: 50.0 mg/kg/injection, schedule: Q01DX009 (ip), vehicle: Klucel (hydroxypropylcellulose) (HPC)): 94 % of control
- T/C (dose: 100.0 mg/kg/injection, schedule: Q01DX009 (ip), vehicle: Klucel (hydroxypropylcellulose) (HPC)): 95 % of control

Structure (SMILES): CC(C)(C)C1=NC(c2ccccc2)N2C(c3ccccc3)NC(c3ccccc3)C1C2c1ccccc1 (stereo not given)
- T/C [1]: 100 % of control
- T/C [2]: 93 % of control
- T/C (dose: 200.0 mg/kg/injection, schedule: Q01DX009 (ip), vehicle: saline with Tween-80): 91 % of control

Structure (SMILES): CC1CN(C(=O)Nc2c(C(C)C)cccc2C(C)C)CC(C)O1 (stereo not given)
- T/C [1]: 96 % of control
- T/C [2]: 90 % of control

Structure (SMILES): CCCCCCCCCCCCCCCc1nc(SCC(=O)OC)n[nH]1
- T/C [3]: 99 % of control
- T/C [4]: 99 % of control
- T/C [5]: 98 % of control

Structure (SMILES): COc1nc2nc(SC(CC(=O)O)C(=O)c3ccc(Cl)cc3)[nH]c2c2ccccc12 (stereo not given)
- T/C [3]: 97 % of control
- T/C [4]: 95 % of control
- T/C [5]: 92 % of control

Structure (SMILES): Clc1ccccc1C(c1ccccc1)(c1ccccc1)n1ccnc1
- T/C [6]: 113 % of control
- T/C [7]: 113 % of control
- T/C [8]: 113 % of control

Structure (SMILES): CSc1nc2c(nnn2C2OC(CO)C(O)C(O)C2O)c(=O)n1C (stereo not given)
- T/C (dose: 60.0 mg/kg/injection, schedule: Q01DX005 (ip), vehicle: saline): 97 % of control
- T/C (dose: 120.0 mg/kg/injection, schedule: Q01DX005 (ip), vehicle: saline): 97 % of control
- T/C (dose: 240.0 mg/kg/injection, schedule: Q01DX005 (ip), vehicle: saline): 100 % of control

Structure (SMILES): O=C1C=CC(=O)N1C(=O)NC(NC(=O)N1C(=O)C=CC1=O)c1cccc2ccccc12
- T/C [9]: 100 % of control
- T/C (dose: 100.0 mg/kg/injection, schedule: Q01DX005 (ip), vehicle: saline with Tween-80): 99 % of control
- T/C [10]: 90 % of control

Structure (SMILES): C=C1C(=O)O[C@@H]2[C@H](O)[C@@H](C)[C@@H]3C=CC(=O)[C@@]3(C)[C@H](OC(=O)C=C(C)C)[C@H]12
- T/C (dose: 1.56 mg/kg/injection, schedule: Q01DX009 (ip), vehicle: saline with Tween-80): 121 % of control
- T/C (dose: 3.12 mg/kg/injection, schedule: Q01DX009 (ip), vehicle: saline with Tween-80): 120 % of control
- T/C (dose: 3.12 mg/kg/injection, schedule: Q01DX009 (ip), vehicle: saline): 151 % of control
- T/C (dose: 6.25 mg/kg/injection, schedule: Q01DX009 (ip), vehicle: saline with Tween-80): 117 % of control and 121 % of control
- T/C (dose: 12.5 mg/kg/injection, schedule: Q01DX009 (ip), vehicle: saline with Tween-80): 107 % of control and 121 % of control
- T/C (dose: 12.5 mg/kg/injection, schedule: Q01DX009 (ip), vehicle: saline): 150 % of control

Structure (SMILES): O=c1cc(O)nc2cn[nH]n12
- T/C [6]: 99 % of control
- T/C [7]: 90 % of control
- T/C [8]: 101 % of control

Structure (SMILES): COCCN1CC(=O)N2Cc3ccccc3CN2C(=O)C1
- T/C (dose: 12.5 mg/kg/injection, schedule: Q01DX005 (ip), vehicle: saline with Tween-80): 107 % of control
- T/C (dose: 25.0 mg/kg/injection, schedule: Q01DX005 (ip), vehicle: saline with Tween-80): 105 % of control
- T/C [9]: 100 % of control and 101 % of control
- T/C [10]: 101 % of control

Structure (SMILES): CCCCN(CCCC)CC(O)c1c(OC)ccc2ccccc12 (stereo not given)
- T/C (dose: 12.5 mg/kg/injection, schedule: Q01DX005 (ip), vehicle: saline): 100 % of control
- T/C (dose: 25.0 mg/kg/injection, schedule: Q01DX005 (ip), vehicle: saline): 98 % of control
- T/C [9]: 119 % of control
- T/C (dose: 50.0 mg/kg/injection, schedule: Q01DX005 (ip), vehicle: saline): 105 % of control

Structure (SMILES): CC(C)(Cc1nocc1C(C)(C)CC#N)c1cc(CC(C)(C)C2(C)OCCO2)no1
- T/C [3]: 95 % of control
- T/C [4]: 88 % of control

Structure (SMILES): Clc1ccc(C(Nc2nncs2)Nc2nncs2)c(Cl)c1
- T/C (dose: 100.0 mg/kg/injection, schedule: Q04DX002 (ip), vehicle: Klucel (hydroxypropylcellulose) (HPC)): 109 % of control
- T/C (dose: 200.0 mg/kg/injection, schedule: Q04DX002 (ip), vehicle: Klucel (hydroxypropylcellulose) (HPC)): 114 % of control

Structure (SMILES): Cc1cc2nc(-c3cc4cc(Cl)cc(Cl)c4oc3=O)[nH]c2cc1C
- T/C (dose: 25.0 mg/kg/injection, schedule: Q01DX005 (ip), vehicle: Klucel (hydroxypropylcellulose) (HPC)): 98 % of control
- T/C (dose: 50.0 mg/kg/injection, schedule: Q01DX005 (ip), vehicle: Klucel (hydroxypropylcellulose) (HPC)): 95 % of control
- T/C (dose: 100.0 mg/kg/injection, schedule: Q01DX005 (ip), vehicle: Klucel (hydroxypropylcellulose) (HPC)): 96 % of control
- T/C (dose: 200.0 mg/kg/injection, schedule: Q01DX005 (ip), vehicle: Klucel (hydroxypropylcellulose) (HPC)): 96 % of control

Reference: PubChem BioAssay AID330 (DTP/NCI, 2004)
